# Assays:
# [1] = Pharmacological Test 1: body weight change of the tumor-bearing mice; details: day 1 - day 7, female CDF1 mice with Meth A fibrosarcoma
# Excerpt: (§1) Female CDF₁ mice of 6 weeks old were used. As the tumor, Meth A fibrosarcoma was used.
# (§2) To the right abdomen of each mouse, 2 x 10⁶ tumor cells were subcutaneously transplanted. On the next day (day 1), the mice were randomly grouped and the suspension was compulsively administered to the mice by using an oral sound for successive 7 days (day 1 - day 7).
# [2] = test system: Meth A fibrosarcoma; assay: Pharmacological Test 1 (anti-cancer activity): tumor weight ratio T/C of subcutaneously transplanted tumor; type: in vivo, mice; details: Mus musculus, 336 h
# Description: as §1, §2
# On day 14, the tumors were removed and weighed. The tumor growth ratio (%) was calculated according to the following equation: Tumor Growth Ratio (%) = T/C x 100 [formula] wherein T means the average weight of tumor of the treated group and C means the average weight of tumor of the control group.
# [3] = cited from earlier work
# [4] = test system: L1210 leukemia; details: experimental model tumor; Cancer Research, Vol. 24, p.1979, 1964; cited from earlier work
# [5] = test system: adenocarcinoma-755; details: experimental model tumor; Cancer Research, Vol. 24, p.1979, 1964; cited from earlier work
# [6] = po, read-out: Tumor Weight Ratio (T/C : %)
compound,measurement,setting,value
"C#CCO[C@H]1C[C@H](n2cc(C(F)(F)F)c(=O)[nH]c2=O)O[C@@H]1CO[Si](C)(C)C(C)(C)C [Example 1, 5'-O-(t-butyldimethylsilyl)-3'-O-propargyl-α,α,α-trifluorothymidine]",Body Weight Change,[1]; 13.4 mg/kg oral,-0.3 g
same,Body Weight Change,[1]; 53.7 mg/kg oral,-4.9 g
same,response vs control in vivo at 13.4 mg/kg,[2]; [6],67%
same,response vs control in vivo at 53.7 mg/kg,[2]; [6],33%
"C#CCO[C@H]1C[C@H](n2cc(C(F)(F)F)c(=O)[nH]c2=O)O[C@@H]1CO [Example 2, 3'-O-propargyl-α,α,α-trifluorothymidine]",Body Weight Change,[1]; 17.3 mg/kg oral,-0.5 g
same,Body Weight Change,[1]; 51.9 mg/kg oral,-4.9 g
same,response vs control in vivo at 17.3 mg/kg,"[2]; 17.3 mg/kg oral, day 1 - day 7, tumors weighed on day 14",16.6%
same,response vs control in vivo at 51.9 mg/kg,"[2]; 51.9 mg/kg oral, day 1 - day 7, tumors weighed on day 14",7.7%
"C#CCO[C@H]1C[C@H](n2cc(C(F)(F)F)c(=O)n(C(=O)c3ccccc3)c2=O)O[C@@H]1CO [Example 6, 3-benzoyl-3'-O-propargyl-α,α,α-trifluorothymidine]",Body Weight Change,[1]; 22.7 mg/kg oral,-3.8 g
same,Body Weight Change,[1]; 68.1 mg/kg oral,-4.7 g
same,response vs control in vivo at 22.7 mg/kg,"[2]; 22.7 mg/kg oral, day 1 - day 7, tumors weighed on day 14",28.3%
same,response vs control in vivo at 68.1 mg/kg,"[2]; 68.1 mg/kg oral, day 1 - day 7, tumors weighed on day 14",2.6%
"C#CCO[C@H]1C[C@H](n2cc(C(F)(F)F)c(=O)[nH]c2=O)O[C@@H]1CO[Si](C)(C)C(C)C [Example 7, 5'-O-isopropyldimethylsilyl-3'-O-propargyl-α,α,α-trifluorothymidine]",Body Weight Change,[1]; 26.0 mg/kg oral,-0.2 g
same,Body Weight Change,[1]; 52.0 mg/kg oral,-4.0 g
same,response vs control in vivo at 26 mg/kg,[2]; [6],38%
same,response vs control in vivo at 52 mg/kg,[2]; [6],25%
"C#CCO[C@H]1C[C@H](n2cc(C(F)(F)F)c(=O)[nH]c2=O)O[C@@H]1COC(=O)CN1CCN(CCCCCCCCC)CC1.Cl.Cl [Example 11, 5'-O-{2-(4-nonylpiperazin-1-yl)acetyl}-3'-O-propargyl-α,α,α-trifluorothymidine dihydrochloride]",Body Weight Change,[1]; 37.0 mg/kg oral,0.6 g
same,Body Weight Change,[1]; 75.0 mg/kg oral,-2.7 g
same,response vs control in vivo at 37 mg/kg,"[2]; 37.0 mg/kg oral, day 1 - day 7, tumors weighed on day 14",58%
same,response vs control in vivo at 75 mg/kg,"[2]; 75.0 mg/kg oral, day 1 - day 7, tumors weighed on day 14",31%
"C#CCO[C@H]1C[C@H](n2cc(C(F)(F)F)c(=O)[nH]c2=O)O[C@@H]1CO[Si](CC)(CC)CC [Example 13, 5'-O-(triethylsilyl)-3'-O-propargyl-α,α,α-trifluorothymidine]",Body Weight Change,[1]; 27.0 mg/kg oral,0.8 g
same,Body Weight Change,[1]; 54.0 mg/kg oral,-2.9 g
same,response vs control in vivo at 27 mg/kg,[2]; [6],57%
same,response vs control in vivo at 54 mg/kg,[2]; [6],37%
"C#CCO[C@H]1C[C@H](n2cc(C(F)(F)F)c(=O)[nH]c2=O)O[C@@H]1COC(=O)[C@@H]1CCCN1CCCCCCCCCCCC.Cl [Example 14, 5'-O-(N-dodecyl-L-prolyl)-3'-O-propargyl-α,α,α-trifluorothymidine hydrochloride]",Body Weight Change,[1]; 38.0 mg/kg oral,-0.2 g
same,Body Weight Change,[1]; 76.0 mg/kg oral,-4.7 g
same,response vs control in vivo at 38 mg/kg,"[2]; 38.0 mg/kg oral, day 1 - day 7, tumors weighed on day 14",32%
same,response vs control in vivo at 76 mg/kg,"[2]; 76.0 mg/kg oral, day 1 - day 7, tumors weighed on day 14",15%
C#CCO[C@H]1C[C@H](n2cc(C(F)(F)F)c(=O)[nH]c2=O)O[C@@H]1COC(=O)CCCCCCCCCCCCCCCCC [Example 29],Body Weight Change,[1]; 18.0 mg/kg oral,-1.2 g
same,Body Weight Change,[1]; 71.9 mg/kg oral,-6.9 g
same,response vs control in vivo at 18 mg/kg,"[2]; 18.0 mg/kg oral, day 1 - day 7, tumors weighed on day 14",52%
same,response vs control in vivo at 71.9 mg/kg,"[2]; 71.9 mg/kg oral, day 1 - day 7, tumors weighed on day 14",21%
C#CCO[C@H]1C[C@H](n2cc(C(F)(F)F)c(=O)n(C(=O)c3ccc(OC)cc3)c2=O)O[C@@H]1CO [Example 45],Body Weight Change,[1]; 28.0 mg/kg oral,1.3 g
same,Body Weight Change,[1]; 84.1 mg/kg oral,-4.5 g
same,response vs control in vivo at 28 mg/kg,"[2]; 28.0 mg/kg oral, day 1 - day 7, tumors weighed on day 14",64.6%
same,response vs control in vivo at 84.1 mg/kg,"[2]; 84.1 mg/kg oral, day 1 - day 7, tumors weighed on day 14",6.9%
C#CCO[C@H]1C[C@H](n2cc(C(F)(F)F)c(=O)n(C(=O)c3ccco3)c2=O)O[C@@H]1CO [Example 47],Body Weight Change,[1]; 25.6 mg/kg oral,0.7 g
same,Body Weight Change,[1]; 76.9 mg/kg oral,-4.4 g
same,response vs control in vivo at 25.6 mg/kg,"[2]; 25.6 mg/kg oral, day 1 - day 7, tumors weighed on day 14",90.3%
same,response vs control in vivo at 76.9 mg/kg,"[2]; 76.9 mg/kg oral, day 1 - day 7, tumors weighed on day 14",21.7%
"O=c1[nH]c(=O)n([C@H]2C[C@H](O)[C@@H](CO)O2)cc1C(F)(F)F [Example F3Thd, Trifluorothymidine]",metabolism in the body,[3]; in vivo,rapidly metabolized in the body
same,absorption when administered orally,[3]; oral administration,not well absorbed when administered orally
same,anti-tumor activity,[4],excellent anti-tumor activity
same,anti-tumor activity,[5],excellent anti-tumor activity
